Source: patent US7303887B2, “Mule: Mcl-1 ubiquitination ligase E3” (Board of Regents, The University of Texas System, priority 2005, dated 2007)
Ends that are not written are not given here. Peptide text beside a SMILES is read from it. * marks the point of attachment. Cbz = O=C(OCc1ccccc1)*

Columns and labels:
[1] = test system: proteasome; experiment: Western blotting for Mcl-1 in Hela cells treated with proteasome inhibitor; assay type: cell-based, human; details: anti-Mcl-1 western blotting
Excerpt: Proteins targeted for proteasome degradation are usually modified by a poly-ubiquitin chain (Hershko and Ciechanover, 1998). To test whether Mcl-1 is ubiquitinated, we treated Hela cells with a proteasome inhibitor MG132 to block the proteasome activity and performed western blotting analysis for Mcl-1 to test for the accumulation of higher molecular weight forms that could be ubiquitin modified. […] To verify these higher molecular weight bands were indeed caused by polyubiquitin conjugation of Mcl-1, the protein was immunoprecipitated by an anti-Mcl-1 antibody and the immuno-precipitate was probed by an anti-ubiquitin antibody.

[2] = test system: Mcl-1 and Mule; experiment: Co-immunoprecipitation of Mule with Flag-Mcl-1 from Flag-Mcl-1 expressing cells; assay type: cell-based; details: anti-Flag immunoprecipitation
Excerpt: We next tested whether Mule interacts with Mcl-1 in vivo. Cell extracts from Flag-Mcl-1 expressing cells were immunoprecipitated with an anti-Flag monoclonal antibody. The immunoprecipitates were then subjected to SDS-PAGE and immunoblotted with antibodies against Flag or Mule. The antibody against Flag precipitated Flag-Mcl-1 in Flag-Mcl-1 expressing cells but not in the control cells. The Flag antibody also precipitated Mule, and the amount of co-precipitated Mcl-1 and Mule increased upon treatment with the proteasome inhibitor MG132.

[3] = test system: caspase-3; experiment: Caspase-3 activation (cleavage) and PARP cleavage after cisplatin treatment; assay type: cell-based, human
Excerpt: We then treated cells with their Mule level knocked down with several DNA damaging agents including UV-irradiation and two commonly used chemotherapeutic drugs etoposide and cisplatin. […] We therefore performed a detailed biochemical analysis in cells treated with this drug with or without Mule knocked down.

[4] = test system: U2OS cells; experiment: Cell death induced by DNA damaging agents with Mule knocked down; assay type: cell-based, human; details: for cell death induced by the agent: Mule knocked down versus not
Description: The Mule shRNA construct was co-transfected with tetracycline repressor expression construct into 5×10^5 attached U2OS cells grown in DMEM with 10% FBS using Lipofectamine transfection reagent (Invitrogen) according to the manufacturer's protocol. One day later, the cells were selected against 1 μg/ml blasticidine and 2 μg/ml puromycin. After two weeks, individual clones were lifted and tested for expression of tetracycline repressor. Positive clones were further tested for Mule shRNA expression. Clones were treated with 2 μg/ml tetracycline for 3 days. Cell extracts were collected and subjected to 6% SDS-PAGE and western blotting with anti-Mule monoclonal antibody. Clones with the best inducible knock down of Mule were chosen for further experiments. […] We then treated cells with their Mule level knocked down with several DNA damaging agents including UV-irradiation and two commonly used chemotherapeutic drugs etoposide and cisplatin. […] We therefore performed a detailed biochemical analysis in cells treated with this drug with or without Mule knocked down.

[5] = test system: U2OS cells; experiment: Colony growth 8 days after 6 hours of cisplatin treatment; assay type: cell-based, human; details: 6 hours treatment, 8 days culture
Description: To test whether the delayed apoptosis when Mule was knocked down has a long last effect, cells were switched to fresh medium after 6 hours of cisplatin treatment and continued culture for 8 days.

[6] = target: T1, Mcl-1 (Homo sapiens, UniProt Q07820); experiment: Biotin-labeled BH3 peptide pull down from HeLa S100; assay type: binding; design: endogenous in cells; host or cells: HeLa S100
Excerpt: (§1) To examine whether BH3 domain of Mule is sufficient for interaction with Mcl-1, we used a biotin-labeled version of the 26 amino acids Mule BH3 peptide (aa 1969-1994) and the 4E mutant to pull down proteins from cell extracts.

[7] = target: T2, Bcl-2 (Homo sapiens, UniProt P10415); experiment: as above; assay type: binding
T2 construct: endogenous in cells; host or cells: HeLa S100
Excerpt: as §1

[8] = target: T3, Bcl-xL (Homo sapiens, UniProt Q07817); experiment: as above; assay type: binding
T3 construct: endogenous in cells; host or cells: HeLa S100
Excerpt: as §1

[9] = target: T4, Bax (Homo sapiens, UniProt Q07812); experiment: as above; assay type: binding
T4 construct: endogenous in cells; host or cells: HeLa S100
Excerpt: as §1

[10] = target: T5, Mule (Homo sapiens); experiment: In vitro Mcl-1 ubiquitination assay, reconstituted system, competition by BH3 peptides; assay type: biochemical; details: peptide at 4 μM
T5 construct: The cDNA of full-length human Mule was subcloned into Sal I and Not I sites of pFastBac-1; made in house; host or cells: Sf21 insect cells, baculovirus (pFastBac-1)
Description: (§2) In vitro Ubiguitination assay: In 15 ul reaction, 200 ng of recombinant Flag-Mcl-1 is incubated with an ATP regenerating system (50 mM Tris pH 7.6, 5 mM MgCl2, 2 mM ATP, 10 mM creatine phosphate, 3.5 U/ml of creatine kinase), 10 μg of Methyl-Ubiquitin, 10 ng human E1, 100 ng Ubch7, 2 μM of ubiquitin aldehyde, and 10 μg of S100 or designated fractions, at 37° C. for one hour. After terminating the reactions with SDS sample buffer, reaction products were fractionated by SDS-PAGE (10%) and analyzed by western blotting with anti-Flag M2 antibody during purification and anti-Mcl-1 when purified components were used.
We used methylated ubiquitin for further biochemical analysis because it gave clearer signal. Mule ubiquitinated Mcl-1 in a dose-dependent manner, and the ubiquitination activity relied on the presence of E1 and E2.
The members of Bcl-2 family of proteins containing only the BH3 domain use this domain to interact with other family members. If Mule also uses its BH3 domain to interact with Mcl-1, a peptide containing this domain should compete for Mule-Mcl-1 interaction therefore blocking Mcl-1 ubiquitination in the reconstituted system. To test this hypothesis, we synthesized a 26 amino acid Mule BH3-containing peptide and a mutant peptide in which four hydrophobic residues required for protein-protein interaction were switched with […] (4E).

[11] = target: T1, Mcl-1; experiment: In vitro Mcl-1 ubiquitination by purified recombinant Mule; assay type: biochemical; details: in the presence of E1, Ubch7 (E2), ATP regenerating system; ubiquitin, methylated or GST-tagged ubiquitin
Description: as §2
The cDNA of full-length human Mule was subcloned into Sal I and Not I sites of pFastBac-1 (Invitrogen). Mule expression baculovirus were prepared according to manufacture's manual (Bac-to-Bac Baculovirus expression system, Invitrogen, Carlsbad, Calif.). Insect cells Sf21 were infected with the P3 virus. The cells were harvested after 2 days of infection. Cell pellet was re-suspended in buffer A and homogenized with a glass douncer (pellet of 1 L culture of infected Sf21 cells was resuspended in 50 ml of buffer A). The homogenate was centrifuged at 100,000 g (SW28 rotor, 25,000 rpm) for 1 hr. The S100 (2 g total protein) were filtered and loaded onto Q column (hand-packed 36 ml of Q Sepharose XL beads). […]

T1 sequence (Q07820 whole entry, the tested form may be a part): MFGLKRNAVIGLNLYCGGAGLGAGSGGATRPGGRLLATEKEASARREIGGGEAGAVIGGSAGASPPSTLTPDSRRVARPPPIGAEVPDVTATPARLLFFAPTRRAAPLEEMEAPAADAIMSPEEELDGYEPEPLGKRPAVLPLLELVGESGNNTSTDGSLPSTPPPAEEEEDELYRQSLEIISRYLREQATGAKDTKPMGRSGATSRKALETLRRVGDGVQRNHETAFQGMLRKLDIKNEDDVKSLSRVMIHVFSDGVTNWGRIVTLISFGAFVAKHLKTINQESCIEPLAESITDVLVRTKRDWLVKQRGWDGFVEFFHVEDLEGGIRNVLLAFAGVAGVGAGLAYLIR
T5 sequence (Q07820 whole entry): as the sequence (Q07820 whole entry, the tested form may be a part) above
T3 sequence (Q07817 whole entry): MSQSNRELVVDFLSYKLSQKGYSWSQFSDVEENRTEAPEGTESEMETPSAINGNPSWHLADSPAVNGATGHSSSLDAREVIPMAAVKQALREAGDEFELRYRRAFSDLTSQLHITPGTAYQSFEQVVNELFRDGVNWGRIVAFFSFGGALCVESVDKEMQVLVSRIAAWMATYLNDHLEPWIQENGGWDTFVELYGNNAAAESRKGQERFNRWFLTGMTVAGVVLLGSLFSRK
T2 sequence (P10415 whole entry): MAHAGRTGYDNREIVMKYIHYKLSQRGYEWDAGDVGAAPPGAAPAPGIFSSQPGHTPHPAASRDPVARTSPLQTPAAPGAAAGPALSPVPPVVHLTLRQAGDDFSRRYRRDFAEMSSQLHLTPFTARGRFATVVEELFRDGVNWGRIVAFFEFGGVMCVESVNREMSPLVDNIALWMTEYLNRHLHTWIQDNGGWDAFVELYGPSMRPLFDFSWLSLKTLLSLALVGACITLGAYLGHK
T4 sequence (Q07812 whole entry): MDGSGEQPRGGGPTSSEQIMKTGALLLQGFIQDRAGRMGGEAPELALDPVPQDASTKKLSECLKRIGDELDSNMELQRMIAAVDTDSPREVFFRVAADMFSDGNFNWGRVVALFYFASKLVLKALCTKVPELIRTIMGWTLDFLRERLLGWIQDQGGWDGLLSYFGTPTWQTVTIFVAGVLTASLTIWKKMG

Molecule: CC(C)C[C@@H](C=O)NC(=O)[C@H](CC(C)C)NC(=O)[C@H](CC(C)C)NC(=O)OCc1ccccc1 [MG132] (Cbz-Leu-Leu-Leu-aldehyde)
- accumulation of higher molecular weight (polyubiquitinated) forms of Mcl-1 [1]: Higher molecular weight protein bands were detected
- amount of co-precipitated Mcl-1 and Mule [2]: increased

Molecule: N.N.[Cl][Pt][Cl] [cisplatin]
- start of (weak) caspase-3 activation after treatment ([3]; Mule knocked down): 8 h
- caspase-3 activation ([3]; Mule knocked down, 6 hours after treatment): did not see any caspase-3 activation
- start of caspase-3 activation after treatment ([3]; cells with Mule present): 4 h
- cleavage of PARP ([3]; with or without Mule knocked down): showed the same pattern
- ability to induce apoptosis among the DNA damaging agents ([4]; Mule knocked down): least ability to induce apoptosis
- cell death induced by the agent [4]: reduced when Mule was knocked down
- colonies relative to cells containing Mule ([5]; Mule knocked down): more than nine fold more colonies
- colonies grown up ([5]; cells containing Mule): few if any colonies

Molecule: COc1cc([C@@H]2c3cc4c(cc3[C@@H](O[C@@H]3O[C@@H]5CO[C@@H](C)O[C@H]5[C@H](O)[C@H]3O)[C@H]3COC(=O)[C@H]23)OCO4)cc(OC)c1O [etoposide]
- cell death induced by the agent [4]: reduced when Mule was knocked down

Molecule: Mule BH3 peptide: synthesized 26 amino acid Mule BH3-containing peptide (aa 1969-1994); biotin-labeled version used for pull down (PGVMTQEVGQLLQDMGDDVYQQYRSL; also: biotin-labeled (position not given here); UniProt Q7Z6Z7 1969-1994, looked up, fragment)
- pull down of Mcl-1 [6]: specifically pulled down Mcl-1
- pull down of Bcl-2 [7]: not Bcl-xL, Bcl-2, and Bax
- pull down of Bcl-xL [8]: not Bcl-xL, Bcl-2, and Bax
- pull down of Bax [9]: not Bcl-xL, Bcl-2, and Bax
- block of Mcl-1 ubiquitination [10]: efficiently block Mcl-1 ubiquitination

Molecule: recombinant Mule: purified recombinant full-length human Mule protein, baculovirus-based expression system; Mcl-1 ubiquitin ligase E3
- stimulation of Mcl-1 ubiquitination [11]: able to stimulate Mcl-1 ubiquitination
